In patent US20130225694A1, “COMPOSITIONS AND METHODS OF INHIBITING RETINAL DEGENERATION” (Oklahoma Medical Research Foundation, priority 2012, published 2013):

Key:
chicken RPE65 = target: T1, chicken RPE65 (Gallus gallus, UniProt Q9YGX2); test: Liposome-based isomerohydrolase assay with recombinant chicken RPE65; type: biochemical
T1 construct: made in house; host or cells: 293A cells infected with chicken RPE65 adenovirus; total lysate used
T1 sequence (Q9YGX2 1-533): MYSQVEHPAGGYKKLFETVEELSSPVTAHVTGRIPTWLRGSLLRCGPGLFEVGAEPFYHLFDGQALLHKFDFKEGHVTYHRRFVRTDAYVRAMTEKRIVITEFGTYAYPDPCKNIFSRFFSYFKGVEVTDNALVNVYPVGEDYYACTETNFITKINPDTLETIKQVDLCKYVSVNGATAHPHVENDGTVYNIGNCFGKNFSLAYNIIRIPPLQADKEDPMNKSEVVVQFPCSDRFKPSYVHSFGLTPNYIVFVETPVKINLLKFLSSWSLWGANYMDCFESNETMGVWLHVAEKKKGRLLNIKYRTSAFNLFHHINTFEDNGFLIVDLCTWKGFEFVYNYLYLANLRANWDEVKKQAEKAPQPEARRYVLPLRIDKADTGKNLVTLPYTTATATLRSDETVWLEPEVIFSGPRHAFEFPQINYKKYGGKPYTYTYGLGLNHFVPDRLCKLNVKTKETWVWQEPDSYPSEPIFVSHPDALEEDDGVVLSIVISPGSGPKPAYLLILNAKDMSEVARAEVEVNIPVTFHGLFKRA

RPE65 isomerohydrolase = target: T2, RPE65 isomerohydrolase (Rattus norvegicus, UniProt O70276); test: Isomerohydrolase activity assay with rat RPE microsomes (Example 2); type: biochemical
T2 construct: 50 μg microsomal proteins from the rat RPE were added into 200 μl of reaction buffer; from tissue; host or cells: rat eyecup/RPE microsomes
T2 sequence (O70276 1-533): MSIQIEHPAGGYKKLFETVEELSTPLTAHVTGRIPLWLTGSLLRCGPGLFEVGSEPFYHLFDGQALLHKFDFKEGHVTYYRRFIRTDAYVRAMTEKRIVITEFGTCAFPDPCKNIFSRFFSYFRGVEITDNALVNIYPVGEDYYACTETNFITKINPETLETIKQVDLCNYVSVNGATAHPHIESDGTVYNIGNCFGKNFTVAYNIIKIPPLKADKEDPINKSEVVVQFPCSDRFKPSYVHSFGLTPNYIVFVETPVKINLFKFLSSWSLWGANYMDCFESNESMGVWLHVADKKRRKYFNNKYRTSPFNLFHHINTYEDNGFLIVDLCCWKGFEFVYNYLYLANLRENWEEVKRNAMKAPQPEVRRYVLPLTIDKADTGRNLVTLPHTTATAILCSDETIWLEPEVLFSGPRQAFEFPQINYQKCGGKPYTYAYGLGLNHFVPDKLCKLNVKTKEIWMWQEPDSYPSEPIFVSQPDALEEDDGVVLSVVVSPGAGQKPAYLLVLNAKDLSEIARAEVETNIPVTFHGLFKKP
Experimental: Isomerohydrolase activity assay and PBN inhibition—Rats were sacrificed, and eyes were enucleated and dissected to remove the anterior part including lens, vitreous, and retina. The remaining eyecups containing RPE were sonicated 3 times for 20 seconds in a cold 0.32 M sucrose/0.1 M sodium phosphate buffer (pH 7.4). The homogenate was centrifuged (20 minutes, 20,000 g) to sediment sclera, unbroken cells, nuclei and mitochondria. The obtained supernatant was recentrifuged (1 hour, 100,000 g), and the microsomal pellet was resuspended in 10 mM 1,3-bis[tris(hydroxymethyl)-methylamino]propane (BTP), (pH 8.0) and 100 mM NaCl, and stored at −80° C. All-trans-[11,12-^3H]-retinol (1 mCi/ml, 45.5 Ci/mmol, American Radiolabeled Chemical, Inc., St. Louis, Mo.) in N,N-dimethyl formamide was used as the substrate for the isomerohydrolase assay. […] The upper layer was collected, and the generated retinoids were analyzed by normal phase HPLC as described (38). […] The isomerohydrolase activity was calculated from the area of the 11-cis-retinol peak using Radiomatic 610TR software (Perkin Elmer, Boston, Mass.) with synthetic 11-cis-[^3H]-retinol as a standard. […] The inhibition constant for PBN was calculated from the following equation: […] where [I]=concentration of PBN, Vm^i=maximal velocity in the presence of Vm=maximal velocity in the absence of PBN. […]

**Q.** For `CC(C)(C)/[N+]([O-])=C/c1ccccc1` [Compound 1, α-phenyl-N-tert-butyl nitrone], which type of inhibition (chicken RPE65; Lineweaver-Burk, with and without 0.1 mM PBN) is on record?
**A.** uncompetitive inhibition

**Q.** And the Ki (chicken RPE65; all-trans-retinyl palmitate liposomes, 0.1 mM PBN, read-out: Ki (inhibition constant, uncompetitive formula))?
**A.** 53 ± 7 µM

**Q.** What about the “inhibition of 11-cis-retinol generation” value (RPE65 isomerohydrolase; 1 mM PBN) of the same compound?
**A.** almost complete inhibition

**Q.** What about the IC50 (RPE65 isomerohydrolase; rat RPE microsomes, 0.2 μM all-trans-[3H]-retinol, 1 h 37° C., read-out: apparent IC50 of isomerohydrolase activity) of the same compound?
**A.** 100 µM
